Common to all, as to type: functional
Experiment [1] concerns A549. The experiment is described as follows: Cytotoxicity against Homo sapiens (human) A549 cells at 1 x 10^-6 mol/L after 48 hr by MTT assay. Particulars: A549, 48 h. In general terms: Tetrazolium assays rely on reduction of a dye to a coloured formazan, in cell work by metabolically active cells.
For experiment [2], the system named is A549. The experiment is described as follows: Cytotoxicity against Homo sapiens (human) A549 cells at 0.1 x 10^-6 mol/L after 48 hr by MTT assay. The conditions noted are these: A549, 48 h.
For experiment [3], the system named is SMMC-7721. Kind of experiment: Cytotoxicity against Homo sapiens (human) SMMC7721 cells at 1 x 10^-6 mol/L after 48 hr by MTT assay. The conditions noted are these: SMMC-7721, 48 h.
Experiment [4] concerns SMMC-7721. The experiment is described as follows: Cytotoxicity against Homo sapiens (human) SMMC7721 cells at 0.1 x 10^-6 mol/L after 48 hr by MTT assay. The conditions noted are these: SMMC-7721, 48 h.
Experiment [5] deals with HL-60. The experiment is described as follows: Cytotoxicity against Homo sapiens (human) HL60 cells at 1 x 10^-6 mol/L after 48 hr by MTT assay. The conditions noted are these: HL-60, 48 h.
Experiment [6] has as its system HL-60. Kind of experiment: Cytotoxicity against Homo sapiens (human) HL60 cells at 0.1 x 10^-6 mol/L after 48 hr by MTT assay. Particulars: HL-60, 48 h.
Experiment [7] deals with BGC-823. Kind of experiment: Cytotoxicity against Homo sapiens (human) BGC823 cells at 0.1 x 10^-6 mol/L after 48 hr by MTT assay. The conditions noted are these: BGC-823, 48 h.
Experiment [8] relates to BGC-823. The experiment is described as follows: Cytotoxicity against Homo sapiens (human) BGC823 cells at 1 x 10^-6 mol/L after 48 hr by MTT assay. Particulars: BGC-823, 48 h.
In experiment [9] the test system is A549. Kind of experiment: Cytotoxicity against Homo sapiens (human) A549 cells at 10 x 10^-6 mol/L after 48 hr by MTT assay. The conditions noted are these: A549, 48 h.
Experiment [10] has as its system SMMC-7721. Kind of experiment: Cytotoxicity against Homo sapiens (human) SMMC7721 cells at 10 x 10^-6 mol/L after 48 hr by MTT assay. Particulars: SMMC-7721, 48 h.
Experiment [11] concerns HL-60. The experiment is described as follows: Cytotoxicity against Homo sapiens (human) HL60 cells at 10 x 10^-6 mol/L after 48 hr by MTT assay. The conditions noted are these: HL-60, 48 h.
The test system of experiment [12] is BGC-823. Kind of experiment: Cytotoxicity against Homo sapiens (human) BGC823 cells at 10 x 10^-6 mol/L after 48 hr by MTT assay. Particulars: BGC-823, 48 h.

In general, inhibition refers to the share of the control response that was lost under treatment. A low value points to little suppression.

Consider `CCOC(=O)[C@H](CCC(=O)OCCOCCOc1no[n+]([O-])c1S(=O)(=O)c1ccccc1)NC(=O)c1ccc(CCc2c[nH]c3[nH]c(N)nc(=O)c23)cc1`, for which the inhibition at 1 µM in the experiment on A549 [1] was below 50%; with SMMC-7721 [3], below 50%; with HL-60 [5] it was above 80%; in the experiment with BGC-823 [8] it was below 50%. The inhibition at 0.1 µM in the experiment on A549 [2], in the experiment on SMMC-7721 [4], with HL-60 [6] and with BGC-823 [7] was below 50% throughout.

In the case of `CCOC(=O)[C@H](CCC(=O)OCCCCCCOc1no[n+]([O-])c1S(=O)(=O)c1ccccc1)NC(=O)c1ccc(CCc2c[nH]c3[nH]c(N)nc(=O)c23)cc1`, the inhibition at 1 µM was below 50% in the experiment on A549 [1], above 80% with SMMC-7721 [3], above 80% with HL-60 [5] and 50% in the experiment on BGC-823 [8]. The inhibition at 10 µM in the experiment on A549 [9], in the experiment on SMMC-7721 [10], with HL-60 [11] and in the experiment with BGC-823 [12] was below 50% each time. The inhibition at 0.1 µM with A549 [2], in the experiment with SMMC-7721 [4], in the experiment on HL-60 [6] and in the experiment on BGC-823 [7] was below 50% each time.

In the case of `CCOC(=O)[C@H](CCC(=O)OC(C)COc1no[n+]([O-])c1S(=O)(=O)c1ccccc1)NC(=O)c1ccc(CCc2c[nH]c3[nH]c(N)nc(=O)c23)cc1` (stereo partly drawn), the inhibition at 1 µM with A549 [1] was below 50%; with SMMC-7721 [3], below 50%; in the experiment on HL-60 [5], above 80%; in the experiment on BGC-823 [8], above 80%. Further, the inhibition at 10 µM in the experiment with A549 [9], in the experiment on SMMC-7721 [10], in the experiment on HL-60 [11] and in the experiment with BGC-823 [12] was below 50% throughout. Also, the inhibition at 0.1 µM in the experiment on A549 [2] is below 50%; in the experiment on SMMC-7721 [4], below 50%; in the experiment with HL-60 [6], above 80%; in the experiment with BGC-823 [7], below 50%.

Consider `CCOC(=O)[C@H](CCC(=O)OCCCOc1no[n+]([O-])c1S(=O)(=O)c1ccccc1)NC(=O)c1ccc(CCc2c[nH]c3[nH]c(N)nc(=O)c23)cc1`, for which the inhibition at 1 µM in the experiment on A549 [1] is below 50%; in the experiment on SMMC-7721 [3], below 50%; in the experiment with HL-60 [5], 50%; in the experiment with BGC-823 [8], below 50%. Besides, the inhibition at 10 µM with A549 [9], in the experiment on SMMC-7721 [10], in the experiment on HL-60 [11] and in the experiment with BGC-823 [12] was below 50% in each case. Also, the inhibition at 0.1 µM in the experiment on A549 [2], in the experiment with SMMC-7721 [4], in the experiment with HL-60 [6] and in the experiment on BGC-823 [7] was below 50% in each case.

For `Nc1nc2[nH]cc(CCc3ccc(C(=O)N[C@@H](CCC(=O)O)C(=O)O)cc3)c2c(=O)[nH]1` [PEMETREXED DISODIUM], the inhibition at 1 µM in the experiment with A549 [1] is below 50%; with SMMC-7721 [3], below 50%; in the experiment with HL-60 [5], above 80%; in the experiment on BGC-823 [8], below 50%. For the same compound, the inhibition at 10 µM in the experiment with A549 [9] is below 50%; in the experiment on SMMC-7721 [10] it was below 50%; in the experiment with HL-60 [11], above 80%; in the experiment on BGC-823 [12], 50%. Also, the inhibition at 0.1 µM in the experiment on A549 [2] was below 50%; in the experiment with SMMC-7721 [4], below 50%; with HL-60 [6] it was 50%; with BGC-823 [7], below 50%.

For the compound `CCOC(=O)[C@H](CCC(=O)OCC#CCOc1no[n+]([O-])c1S(=O)(=O)c1ccccc1)NC(=O)c1ccc(CCc2c[nH]c3[nH]c(N)nc(=O)c23)cc1`, the inhibition at 1 µM with A549 [1] is below 50%; in the experiment on SMMC-7721 [3], 50%; in the experiment on HL-60 [5], above 80%; with BGC-823 [8], 50%. The results for the inhibition at 10 µM in the experiment with A549 [9], in the experiment with SMMC-7721 [10] and in the experiment with HL-60 [11] were below 50%, below 50% and 50%, respectively. For the same compound, the inhibition at 0.1 µM in the experiment on A549 [2], in the experiment on SMMC-7721 [4], with HL-60 [6] and in the experiment with BGC-823 [7] was below 50% in each case.

For `CCOC(=O)[C@H](CCC(=O)OCCOc1no[n+]([O-])c1S(=O)(=O)c1ccccc1)NC(=O)c1ccc(CCc2c[nH]c3[nH]c(N)nc(=O)c23)cc1`, the inhibition at 1 µM is below 50% in the experiment on A549 [1], below 50% in the experiment on SMMC-7721 [3], 50% in the experiment with HL-60 [5] and below 50% with BGC-823 [8]. Also, the inhibition at 10 µM in the experiment on A549 [9], in the experiment on SMMC-7721 [10], with HL-60 [11] and in the experiment on BGC-823 [12] was below 50% throughout. Further, the inhibition at 0.1 µM with A549 [2], in the experiment on SMMC-7721 [4], in the experiment on HL-60 [6] and with BGC-823 [7] was below 50% throughout.

With `CCOC(=O)[C@H](CCC(=O)OCCCCCOc1no[n+]([O-])c1S(=O)(=O)c1ccccc1)NC(=O)c1ccc(CCc2c[nH]c3[nH]c(N)nc(=O)c23)cc1`, the inhibition at 1 µM in the experiment on A549 [1] is 50%; with SMMC-7721 [3], below 50%; in the experiment on HL-60 [5], above 80%; in the experiment on BGC-823 [8], 50%. The inhibition at 10 µM in the experiment with A549 [9], with SMMC-7721 [10], in the experiment on HL-60 [11] and with BGC-823 [12] was below 50% throughout. The inhibition at 0.1 µM in the experiment with A549 [2] was below 50%; in the experiment on SMMC-7721 [4], below 50%; in the experiment with HL-60 [6], above 80%; in the experiment on BGC-823 [7] it was 50%.

In the case of `CCOC(=O)[C@H](CCC(=O)OCCCCOc1no[n+]([O-])c1S(=O)(=O)c1ccccc1)NC(=O)c1ccc(CCc2c[nH]c3[nH]c(N)nc(=O)c23)cc1`, the inhibition at 1 µM with A549 [1] was below 50%; with SMMC-7721 [3] it was above 80%; in the experiment on HL-60 [5], 50%; in the experiment on BGC-823 [8], above 80%. For the same compound, the inhibition at 10 µM in the experiment with A549 [9], in the experiment on SMMC-7721 [10], in the experiment with HL-60 [11] and in the experiment on BGC-823 [12] was below 50% each time. The inhibition at 0.1 µM in the experiment with A549 [2] is below 50%; in the experiment on SMMC-7721 [4] it was below 50%; in the experiment on HL-60 [6] it was 50%; with BGC-823 [7], below 50%.

Values taken from ChEMBL document CHEMBL3046595, “Novel furoxan NO-donor pemetrexed derivatives: design, synthesis, and preliminary biological evaluation” (2009).
